Measurements taken from publication PMC10608817, “Extending the Affinity Range of Weak Affinity Chromatography for the Identification of Weak Ligands Targeting Membrane Proteins” (Molecules, 2023).

Biological target: T1, Adenosine-A2A Receptor (AA2AR) (Homo sapiens, UniProt P29274)
T1 construct: gene ADORA2A; human AA2AR N-terminally fused to the flag and decahistidine tags, in nanodiscs
Test: biochemical
Assay type: binding

T1 sequence (P29274 whole entry, the tested form may be a part): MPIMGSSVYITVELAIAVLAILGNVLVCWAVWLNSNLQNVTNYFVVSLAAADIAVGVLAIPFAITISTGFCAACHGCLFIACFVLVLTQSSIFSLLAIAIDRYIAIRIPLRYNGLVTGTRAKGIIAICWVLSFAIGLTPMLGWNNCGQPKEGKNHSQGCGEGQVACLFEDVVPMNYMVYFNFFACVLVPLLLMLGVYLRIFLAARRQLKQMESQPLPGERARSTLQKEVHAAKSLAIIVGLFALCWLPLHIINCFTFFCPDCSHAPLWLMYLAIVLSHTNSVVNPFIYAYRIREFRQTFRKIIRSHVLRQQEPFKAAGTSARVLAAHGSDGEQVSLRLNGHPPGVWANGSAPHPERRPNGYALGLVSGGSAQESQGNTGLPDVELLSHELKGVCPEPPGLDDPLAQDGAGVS

COc1ccc2[nH]ccc2n1 [F468, 5-methoxy-1H-pyrrolo[3,2-b]pyridine]
Kd: 210 µM

COc1cc2cc[nH]c2cn1 [F469, 5-methoxy-1H-pyrrolo[2,3-c]pyridine]
Kd: 190 µM
